The subject of one experiment is cancer cell lines. Nature of the experiment: Cell viability analysis (WST-1) on cancer cell lines. Conditions: drug 10 μM, 72 hours, WST-1; Table 3. Type of experiment: cell-based, human. On the technique in general: Tetrazolium dyes change colour on reduction, which living cells bring about.
Experiment [1] has as its system HepG2 (Hepatocellular Carcinoma). Nature of the experiment: Cell viability analysis, hepatic cancer HepG2. The class given is cell-based, human. The settings on record: Homo sapiens, HepG2, 72 h.
In experiment [2] the test system is HCT116 (p53+) (Colorectal Carcinoma). Nature of the experiment: cells. Conditions: Homo sapiens, HCT-116, 72 h, read-out: cell viability (survival rate), HCT116.
Setting [3] is: HepG2, repeated experiment, read-out: The results of antibiotic drug inhibiting cancer cell lines (cell viability analysis), HepG2.
Where [4] appears, read: drug 10 μM, 72 hours, WST-1, OD450 nm, read-out: cell viability (survival rate), HepG2.
Where [5] appears, read: read-out: The results of antibiotic drug inhibiting cancer cell lines (cell viability analysis), HepG2, HepG2, repeated experiment.
The mark [6] stands for this setting: read-out: cell viability (survival rate), HepG2, drug 10 μM, 72 hours, WST-1, OD450 nm.

Where a name gives a salt, the structure may show the parent alone. Read-outs that look alike come from different tables or passages of the source.

A word on the viability: it is a read-out of living cells in per cent, often relative to untreated cells. In the case of `CC[C@@H]([C@H](C)O)n1ncn(-c2ccc(N3CCN(c4ccc(OC[C@@H]5CO[C@@](Cn6cncn6)(c6ccc(F)cc6F)C5)cc4)CC3)cc2)c1=O` [Posaconazole], the “inhibition effect on different cancer cell lines” value in the experiment with cancer cell lines is reported as “significant inhibition effect”. In addition, the viability at 10 µM in experiment [1] (setting [3]) is 57.8%; in experiment [1] (setting [4]) it was 87.2%.

In the case of `CC(C)(C)C(=O)OCOP(=O)(COCCn1cnc2c(N)ncnc21)OCOC(=O)C(C)(C)C` [Adefovir Dipivoxil (Preveon, Hepsera), Adefovir Dipivoxil], the “inhibition effect on different cancer cell lines” value in the experiment with cancer cell lines is “significant inhibition effect”. Further, the viability at 10 µM came out at 80.1% in experiment [1] (setting [5]) and 95.5% in experiment [1] (setting [6]).

For `CN(C)[C@@H]1C(O)=C(C(N)=O)C(=O)[C@@]2(O)C(O)=C3C(=O)c4c(O)cccc4[C@@](C)(O)[C@H]3C[C@@H]12` [Tetracycline HCl], the “inhibition effect on different cancer cell lines” value in the experiment on cancer cell lines is reported as “significant inhibition effect”. For the same compound, the viability at 10 µM turned out to be 106% in experiment [1] (setting [5]) and 74.1% in experiment [1] (setting [6]).

In the case of `CN(C)CCC=C1c2ccccc2CCc2ccccc21` [Amitriptyline HCl], the “inhibition effect on different cancer cell lines” value in the experiment with cancer cell lines is reported as “significant inhibition effect”. The viability at 10 µM in experiment [1] (setting [3]) and in experiment [1] (setting [4]) was 106% throughout.

For the compound `CCCCCCCCCCCCCCCC[N+](C)(C)CCN(Cc1ccc(OC)cc1)c1ncccn1` [Thonzonium Bromide], the “inhibition effect on different cancer cell lines” value in the experiment with cancer cell lines is “significant inhibition effect”. In addition, the viability at 10 µM is 47.7% in experiment [1] (setting [3]), 45.1% in experiment [1] (setting [4]) and 32.9% in experiment [2].

In the case of `CCc1cc2c(cc1CC)CC(NC[C@H](O)c1ccc(O)c3[nH]c(=O)ccc13)C2` [Indacaterol Maleate], in the experiment with cancer cell lines, the “inhibition effect on different cancer cell lines” value was “significant inhibition effect”. The viability at 10 µM worked out at 84.4% in experiment [1] (setting [3]) and 81.2% in experiment [1] (setting [4]).

As to `CN(C)[C@@H]1C(O)=C(C(N)=O)C(=O)[C@@]2(O)C(O)=C3C(=O)c4c(O)ccc(Cl)c4[C@@](C)(O)[C@H]3C[C@@H]12` [Chlortetracycline HCl], in the experiment with cancer cell lines, the “inhibition effect on different cancer cell lines” value is on record as “significant inhibition effect”. Moreover, the viability at 10 µM in experiment [1] (setting [5]) stood at 113%; in experiment [1] (setting [6]), 75%.

As to `NC(=O)N/N=C/c1ccc([N+](=O)[O-])o1` [Nitrofurazone (Nitrofural), Nitrofurazone], the “inhibition effect on different cancer cell lines” value in the experiment on cancer cell lines was “significant inhibition effect”. The viability at 10 µM in experiment [1] (setting [3]) is 95.4%; in experiment [1] (setting [4]) it was 82.4%.

On to `Cc1ncc([N+](=O)[O-])n1CCO` [Metronidazole (Flagyl), Metronidazole], for which the “inhibition effect on different cancer cell lines” value in the experiment with cancer cell lines is “significant inhibition effect”. Besides, the figures for the viability at 10 µM in experiment [1] (setting [5]) and in experiment [1] (setting [6]) were 94.1% and 105%, respectively.

On to `Cc1ccc2c(Cl)cc(Cl)c(O)c2n1` [Chlorquinaldol], for which the “inhibition effect on different cancer cell lines” value in the experiment on cancer cell lines was “significant inhibition effect”. For the same compound, the viability at 10 µM came out at 82% in experiment [1] (setting [3]) and 82.3% in experiment [1] (setting [4]).

With `COc1c(C)c2c(c(O)c1C/C=C(\C)CCC(=O)O)C(=O)OC2` [Mycophenolic (Mycophenolate), Mycophenolic], the viability at 10 µM came out at 62.1% in experiment [1] (setting [3]) and 72.9% in experiment [1] (setting [4]).

Turning to `CC(C)/N=c1\cc2n(-c3ccc(Cl)cc3)c3ccccc3nc-2cc1Nc1ccc(Cl)cc1` [Clofazimine], in the experiment on cancer cell lines, the “inhibition effect on different cancer cell lines” value was “significant inhibition effect”. In addition, the viability at 10 µM in experiment [1] (setting [3]) was 90.4%; in experiment [1] (setting [4]), 82.2%.

Consider `CC(C)(C)CC(C)(C)c1ccc(O)c(Cc2ccc(Cl)cc2Cl)c1` [Clofoctol], for which, in the experiment with cancer cell lines, the “inhibition effect on different cancer cell lines” value is “significant inhibition effect”. Moreover, the viability at 10 µM was 114% in experiment [1] (setting [3]), 77.9% in experiment [1] (setting [4]) and 61% in experiment [2].

Regarding `Clc1ccc(COC(Cn2ccnc2)c2ccc(Cl)cc2Cl)c(Cl)c1` (centres unmarked) [Miconazole nitrate], in the experiment on cancer cell lines, the “inhibition effect on different cancer cell lines” value was “significant inhibition effect”. The viability at 10 µM in experiment [1] (setting [5]) came to 108%; in experiment [1] (setting [6]), 104%.

As for `Clc1ccc(C(Cn2ccnc2)OCc2ccsc2Cl)c(Cl)c1` (centres unmarked) [Tioconazole], in the experiment with cancer cell lines, the “inhibition effect on different cancer cell lines” value was “significant inhibition effect”. Further, the viability at 10 µM in experiment [1] (setting [5]) is 109%; in experiment [1] (setting [6]), 100%.

Regarding `CC(NC(C)(C)C)C(=O)c1cccc(Cl)c1` (centres unmarked) [Amfebutamone (Bupropion), Amfebutamone], the “inhibition effect on different cancer cell lines” value in the experiment with cancer cell lines was “significant inhibition effect”. The values for the viability at 10 µM in experiment [1] (setting [5]) and in experiment [1] (setting [6]) were 92.3% and 85.1%, respectively.

In the case of `COc1cc(NC(C)CCCN)c2ncccc2c1` (centres unmarked) [Primaquine Diphosphate], the “inhibition effect on different cancer cell lines” value with cancer cell lines is reported as “significant inhibition effect”. For the same compound, the viability at 10 µM is 81% in experiment [1] (setting [5]), 81.4% in experiment [1] (setting [6]) and 69.5% in experiment [2].
